Assay results as given in US20240245677A1, “SELECTED COMPOUNDS FOR TARGETED DEGRADATION OF BRD9” (C4 THERAPEUTICS, INC., priority 2021, published 2024).

What was measured:
GSPT1 = target: T1, GSPT1 (Homo sapiens, UniProt P15170+Q96SW2); experiment: GSPT1 HiBiT degradation assay in HEK293T.114 cells; format: cell-based; details: 6 hours
T1 construct: CRISPR-edited to endogenously express HiBiT tagged GSPT1; host or cells: HEK293T.114
From the text: This assay evaluated the off-target degradation of the cereblon neosubstrate, Eukaryotic peptide chain release factor GTP-binding subunit ERF3A (GSPT1), induced by treatment with Compound 1 as measured by luminescence using Nano-Glo HiBiT® Lytic Assay System in 293T cells CRISPR-edited to endogenously express HiBiT tagged GSPT1.
Nano-Glo® HiBiT Lytic Assay System was purchased from Promega (Catalog No. N3050, Madison, WI, USA). HEK293T cells were obtained from ATCC (Catalog No. CRL-3216, Manassas, VA, USA), and maintained in DMEM medium (Catalog No. 11995065, ThermoFischer Scientific, Waltham, MA, USA) supplemented with 10% heat inactivated FBS (Catalog No. 16000-044, Gibco, Grand Island, NY, USA) at 37° C. in an atmosphere of 5% CO2 in air. The HiBiT polypeptide tag was introduced into the N-terminus of the endogenous GSPT1 locus by CRISPR-Cas9 to produce the HEK293T.114 modified cell line. The HiBiT polypeptide allows reconstitution of NanoBiT enzyme following cell lysis and addition of the complementing LgBiT polypeptide that activates substrate to produce a luminescent signal that is directly proportional to the amount of HiBiT-tagged GSPT1.
HEK293T.114 cells were routinely sub-cultured to maintain cell density between 30-80% confluence, not to exceed 20 passages. Cells were washed with PBS, trypsinized for 5 minutes at 37° C., and resuspended in fresh growth media without phenol red. An aliquot was diluted 2× with Trypan Blue solution 0.4% (Catalog No. 15250061, ThermoFisher Scientific, Waltham, MA, USA) and cell count determined. Cell concentration was adjusted with growth media without phenol red to 2×10^5 cells/mL.
The 10 mM DMSO stock solutions of Compound 1 or CC0885 were serially diluted (half log) in DMSO to generate 11-point dose series (10000, 3160, 1000, 316, 100, 31.6, 10, 3.2, 1, 0.32, 0.1 μM) in an acoustic ready 384-well low dead volume microplate (Catalog No. LP-0200, Beckman Coulter Life Sciences, Indianapolis, IN, USA). Using an Echo 550 Acoustic Liquid Handler (Beckman Coulter Life Sciences, Indianapolis, IN, USA), 30 nL of serially diluted compound solutions were dispensed in duplicate to each 384-well black TC-treated microplate (Catalog No. 3571, Corning, Glendale, CA, USA). 30 nL DMSO was transferred to all control wells.
30 μL of HEK293T.114 cells suspended in growth media without phenol red at 2×10^5 cells/mL (6000 cells/well) were dispensed using a Multidrop Combi Reagent Dispenser (Catalog No. 5840300, ThermoFisher Scientific, Waltham, MA, USA) to each well of columns 1-23 of 384-well black TC-treated microplates containing duplicate concentration range of test compounds and DMSO controls. 30 μL of media was dispensed to column 24 as background positive control (P). Plates were spun briefly at 1000 rpm and cells were incubated at 37° C., 5% CO2 for 6 hours. Final concentration of DMSO was 0.1% for all samples.
Cellular GSPT1 protein level was determined based on quantification of HiBiT using Nano-Glo® HiBiT Lytic Assay System (Promega). 30 μL Nano-Glo Lytic Assay reagents were added to each well of columns 1-23 and luminescence was acquired on EnVision® Multilabel Reader (Catalog No. 2104-0010, Perkin Elmer Inc., Dumfries, VA, USA). Column 24 (cells without Nano-Glo reagent addition) was used as plate background or positive control (P). Cells treated in the absence of the test compound (0.1% DMSO vehicle) were the negative control (N)/
Percent response of compound-treated samples (T) were calculated by normalizing to the DMSO treated negative (N) controls on the same microtiter plate after background (i.e., positive control) signal subtraction:
Curve fit and DC50 (concentration that degrades 50% GSPT1) determination was performed by 4 parametric logistic fit analysis using software such as GraphPad Prism software (GraphPad Software, LLC, San Diego, CA, USA). […]

[1] = Competitive water activity study; format: physicochemical
Protocol: Competitive water activity experiments at 25° C. were conducted for hydrate Pattern A and anhydrate Pattern G. Pattern A, and Pattern G, were equilibrated at 25° C. in 6 different water activities with acetone/water mixtures. Obtained suspensions were stirred at 25° C. for 3 days and 7 days. Obtained suspensions were centrifuged and obtained solids were analyzed by XRPD immediately.
Competitive water activity experiments at 25° C. were conducted for hydrate Pattern A and anhydrate Pattern M. Pattern A, and Pattern M were equilibrated at 25° C. in 6 different water activities with acetone/water mixtures. Obtained suspension was stirred at 25° C. for 3 days and 7 days. Obtained suspensions were centrifuged and obtained solids were analyzed by XRPD immediately.

[2] = Variable temperature XRPD (VT-XRPD) experiments; format: physicochemical; details: 25° C. (start)
Protocol: To investigate form conversion behavior, variable temperature XRPD experiments were conducted for hydrate Pattern A, hydrate Pattern C, hydrate Pattern F and hetero-solvate Pattern L.
Based on DSC and TGA results, variable temperature XRPD was conducted for Pattern A, at different temperatures, including 25° C., 110° C. and 25° C.
Based on DSC and TGA results, variable temperature XRPD was conducted for Pattern B, at different temperatures, including 25° C., 80° C., 130° C. and 25° C. The sample after heating-cooling was placed at 25° C./75% RH condition for 1 day and investigated by XRPD.
Based on DSC and TGA results, variable temperature XRPD was conducted for Pattern C, at different temperatures, including 25° C., 110° C. and 25° C.
Based on DSC and TGA results, variable temperature XRPD was conducted for Pattern F at different temperatures, including 25° C., 110° C. and 25° C. The sample after heating-cooling was placed at 25° C./75% RH condition for 1 day and investigated by XRPD.
Based on DSC and TGA results, variable temperature XRPD was conducted for Pattern L, at different temperatures, including 25° C., 100° C., 140° C., 180° C. and 25° C. The sample after heating-cooling was placed at 25° C./92% RH condition for 24 h and investigated by XRPD.

in vitro = details: plasma, 3 h, 2 µM
Protocol: Plasma protein binding (PPB) of Compound 1 was evaluated in plasma from mice, rats, dogs, cynomolgus monkeys, and humans using ultracentrifugation.
Frozen plasma from CD-1 mice, Sprague-Dawley rats, beagle dogs, cynomolgus monkeys, and humans was purchased and stored at ≤−30° C. On the day of study, plasma samples of CD-1 mice, Sprague-Dawley rats, beagle dogs, cynomolgus monkeys and humans were thawed under running cold tap water and centrifuged to remove any particulates.
For the internal standard, telmisartan, a 1 mg/mL solution was prepared by dissolving 1.4 mg of telmisartan in 1.4 mL of DMSO, and stored at 4° C.
The 10 mM stock solution of each test compound was used to prepare 400 μM intermediate stocks in methanol. Then, a 2 μM working stock of each test compound was prepared for plasma from each species (mouse, rat, dog, monkey, and human) by spiking 12 μL of the 400 μM intermediate stock for each test compound into 2400 μL of thawed and prepared plasma from a test species.
400 μL of blank plasma for each species was transferred to a 0.5 mL Beckman tube (Part No. 343776, Beckman Coulter Life Sciences, Indianapolis, IN, USA) and centrifuged for 3 hours at 627000×g at 37° C. The supernatant was removed and kept at room temperature.
To prepare for ultracentrifugation, the rotor of the centrifuge was placed into an incubator and warmed up to 37° C. before centrifugation. The vacuum switch of the OPTIMA™ MAX-TL Ultracentrifuge (Beckman Coulter Life Sciences, Indianapolis, IN, USA) was turned on and the vacuum was reduced to less than 10 microns to warm up the system. The ultracentrifuge's parameters were set to the following: Temperature—37° C.; Time—3 hours; and Speed—627000×g. For each species and each test compound, 2.4 mL of working stock was mixed and pre-incubated for 45 minutes at 37° C. Then, 60 μL was separated and precipitated with 200 μL of acetonitrile containing internal standard and labeled as (TO), and 0.4 mL (triplicates) were transferred to Beckman 2 mL tubes (Part No. 344625, Beckman Coulter Life Sciences, Indiana, IN, USA).
For each species and each test compound, the triplicate 0.4 mL sample tubes were centrifuged for 3 hours at 627000×g at 37° C. […] At 45 minutes, 60 μL was separated, precipitated with 200 μL of acetonitrile containing internal standard and labelled as (T45). After completion of 3 hours, 60 μL of incubated samples were separated, precipitated with acetonitrile containing internal standard, and labeled as (T3).
After completing the 3 hours of centrifugation, 30 μl of the top fraction of supernatant from each sample tube was removed (free fraction) and precipitated with acetonitrile containing internal standard (labeled as top sample).
After removing 30 μL of the top fraction, remaining top and bottom layer were mixed thoroughly to make a uniform mixture. From this mixture, 30 μL of bottom sample was collected and precipitated with acetonitrile containing internal standard (labelled as bottom sample).
Matrix matching was done for crashed stability samples (TO, T45 and T3 samples) by adding 30 μL of a 50:50 mixture of blank plasma supernatant and phosphate-buffered saline (PBS), and for top and bottom samples, by adding 30 μL of blank plasma (kept at room temperature).
All the stability samples and centrifuged samples were vortexed at 1000 rpm for 5 minutes and centrifuged at 4000 rpm for 10 minutes. Supernatant from each sample was separated, diluted 2-fold with water, and analyzed in LC-MS/MS.
Samples (supernatant-free fraction and total plasma) were analyzed by LCMS-MS (no standards).

[3] = Acetone/water (v:v = 60:40), a.w. 0.8
[4] = Acetone/water (v:v = 86:14), a.w. 0.6
[5] = Acetone/water (v:v = 95:5), a.w. 0.4
[6] = Acetone/water (v:v = 98:2), a.w. 0.2

T1 sequence (P15170 whole entry): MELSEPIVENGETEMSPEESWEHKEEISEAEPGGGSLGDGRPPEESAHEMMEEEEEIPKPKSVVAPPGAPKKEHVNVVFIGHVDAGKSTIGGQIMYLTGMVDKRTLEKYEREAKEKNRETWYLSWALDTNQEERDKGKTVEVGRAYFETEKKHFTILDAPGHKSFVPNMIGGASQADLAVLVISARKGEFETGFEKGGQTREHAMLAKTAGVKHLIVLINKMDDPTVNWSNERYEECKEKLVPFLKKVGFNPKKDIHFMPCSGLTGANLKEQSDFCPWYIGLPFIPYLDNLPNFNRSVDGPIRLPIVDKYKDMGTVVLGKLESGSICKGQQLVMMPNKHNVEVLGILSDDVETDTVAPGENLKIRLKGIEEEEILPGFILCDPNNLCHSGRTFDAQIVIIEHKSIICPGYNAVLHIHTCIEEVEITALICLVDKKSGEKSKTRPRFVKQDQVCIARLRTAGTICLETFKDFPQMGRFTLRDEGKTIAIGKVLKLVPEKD
T1 sequence (Q96SW2 whole entry): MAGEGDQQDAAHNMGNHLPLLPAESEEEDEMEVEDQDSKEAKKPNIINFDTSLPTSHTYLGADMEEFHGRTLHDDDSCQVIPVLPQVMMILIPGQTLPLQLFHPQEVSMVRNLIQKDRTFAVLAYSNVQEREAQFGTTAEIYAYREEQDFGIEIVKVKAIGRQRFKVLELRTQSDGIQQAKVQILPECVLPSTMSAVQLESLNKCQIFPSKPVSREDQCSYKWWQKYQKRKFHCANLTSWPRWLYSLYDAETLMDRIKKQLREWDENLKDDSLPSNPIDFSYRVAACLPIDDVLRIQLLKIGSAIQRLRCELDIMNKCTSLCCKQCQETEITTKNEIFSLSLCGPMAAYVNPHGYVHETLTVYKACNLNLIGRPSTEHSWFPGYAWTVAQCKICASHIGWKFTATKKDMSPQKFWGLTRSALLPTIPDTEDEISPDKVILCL
T1 sequence (Q16531 2-1140 partner limits assumed): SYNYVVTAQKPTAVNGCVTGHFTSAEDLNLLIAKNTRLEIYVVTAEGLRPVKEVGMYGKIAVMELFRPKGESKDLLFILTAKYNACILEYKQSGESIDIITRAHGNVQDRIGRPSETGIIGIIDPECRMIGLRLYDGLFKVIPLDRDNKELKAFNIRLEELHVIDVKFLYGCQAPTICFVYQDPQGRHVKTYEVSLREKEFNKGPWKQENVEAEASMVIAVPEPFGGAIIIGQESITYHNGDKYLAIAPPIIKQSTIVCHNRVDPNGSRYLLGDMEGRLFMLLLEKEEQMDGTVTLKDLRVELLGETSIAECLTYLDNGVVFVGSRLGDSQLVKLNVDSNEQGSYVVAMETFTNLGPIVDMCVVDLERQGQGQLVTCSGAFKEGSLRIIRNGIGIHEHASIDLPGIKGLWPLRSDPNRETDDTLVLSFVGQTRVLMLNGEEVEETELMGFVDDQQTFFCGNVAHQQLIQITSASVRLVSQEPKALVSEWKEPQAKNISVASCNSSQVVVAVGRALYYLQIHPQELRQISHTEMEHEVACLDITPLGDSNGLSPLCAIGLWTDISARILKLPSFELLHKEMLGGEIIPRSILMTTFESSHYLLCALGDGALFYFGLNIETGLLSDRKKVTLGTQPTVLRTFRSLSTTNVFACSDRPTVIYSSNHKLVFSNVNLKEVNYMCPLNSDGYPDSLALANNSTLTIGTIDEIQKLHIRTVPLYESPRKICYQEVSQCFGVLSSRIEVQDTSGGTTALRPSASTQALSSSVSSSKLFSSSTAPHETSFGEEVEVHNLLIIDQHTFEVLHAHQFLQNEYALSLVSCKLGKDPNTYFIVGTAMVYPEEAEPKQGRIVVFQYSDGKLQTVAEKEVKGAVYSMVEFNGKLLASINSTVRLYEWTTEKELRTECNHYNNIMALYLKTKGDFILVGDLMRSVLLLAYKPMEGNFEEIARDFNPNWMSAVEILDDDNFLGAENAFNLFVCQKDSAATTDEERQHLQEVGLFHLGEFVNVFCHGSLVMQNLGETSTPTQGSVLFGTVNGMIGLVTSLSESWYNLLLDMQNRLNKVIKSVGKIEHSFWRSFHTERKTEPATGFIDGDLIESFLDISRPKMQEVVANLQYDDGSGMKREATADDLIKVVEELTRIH

Cc1ccc(NC(=O)NCc2ccc3c(c2)CN(C2CCC(=O)NC2=O)C3=O)cc1Cl (centres unmarked) [CC-885, reference compound]
% GSPT1 Remaining, Mean (GSPT1; 0.100 nM): 106.2% | % GSPT1 Remaining, Mean (GSPT1; 0.316 nM): 99.3% | % GSPT1 Remaining, Mean (GSPT1; 1.00 nM): 96.4% | % GSPT1 Remaining, Mean (GSPT1; 3.15 nM): 101.9% | % GSPT1 Remaining, Mean (GSPT1; 10.0 nM): 107.2% | % GSPT1 Remaining, Mean (GSPT1; 31.5 nM): 102.5% | % GSPT1 Remaining, Mean (GSPT1; 100 nM): 102.6% | % GSPT1 Remaining, Mean (GSPT1; 317 nM): 100.9% | % GSPT1 Remaining, Mean (GSPT1; 1000 nM): 101.1% | % GSPT1 Remaining, Mean (GSPT1; 3161 nM): 103.2% | % GSPT1 Remaining, Mean (GSPT1; 9990 nM): 98.8% | Mean Emax (%) ± SD (GSPT1; GSPT1-HiBiT, HEK293T.114 cells): 92.85 ± 1.30% | DC50 (GSPT1; GSPT1-HiBiT, HEK293T.114 cells, read-out: Geometric Mean DC50): 1.93 nM | degradation of GSPT1 induced (GSPT1; positive control): > 95%

COc1cc(-c2cn(C)c(=O)c(C)c2C)cc(OC)c1CN1CC[C@H](N2CCN(c3ccc(N[C@H]4CCC(=O)NC4=O)cc3F)CC2)C(F)(F)C1 [Pattern A and Pattern G]
XRPD-3 days ([1]; Acetone, a.w. 0.0): Pattern B | XRPD-7 days ([1]; Acetone, a.w. 0.0): Pattern N | XRPD-3 days [1, 3]: Pattern K | XRPD-7 days [1, 3]: Pattern K | XRPD-3 days [1, 4]: Pattern B | XRPD-7 days [1, 4]: Pattern B | XRPD-3 days [1, 5]: Pattern B | XRPD-7 days [1, 5]: Pattern N | XRPD-3 days [1, 6]: Pattern B | XRPD-7 days [1, 6]: Pattern N | XRPD-7 days ([1]; Water, a.w. 1.0): Pattern K

COc1cc(-c2cn(C)c(=O)c(C)c2C)cc(OC)c1CN1CC[C@H](N2CCN(c3ccc(N[C@H]4CCC(=O)NC4=O)cc3F)CC2)C(F)(F)C1 [Pattern A and Pattern M]
XRPD-3 days ([1]; Acetone, a.w. 0.0): Pattern N | XRPD-7 days ([1]; Acetone, a.w. 0.0): Pattern N | XRPD-3 days [1, 3]: Pattern K | XRPD-7 days [1, 3]: Pattern A | XRPD-3 days [1, 4]: Pattern N | XRPD-7 days [1, 4]: Pattern N | XRPD-3 days [1, 5]: Pattern N | XRPD-7 days [1, 5]: Pattern N | XRPD-3 days [1, 6]: Pattern N | XRPD-7 days [1, 6]: Pattern N | XRPD-3 days ([1]; Water, a.w. 1.0): Pattern K | XRPD-7 days ([1]; Water, a.w. 1.0): Pattern A

COc1cc(-c2cn(C)c(=O)c(C)c2C)cc(OC)c1CN1CC[C@H](N2CCN(c3ccc(N[C@H]4CCC(=O)NC4=O)cc3F)CC2)C(F)(F)C1 [Pattern A, Pattern C, Pattern D, and Pattern E]
XRPD-7 days ([1]; Acetone, a.w. 0.0): Pattern B | XRPD-7 days ([1]; Acetone/water (v:v = 36:64), a.w. 0.9): Pattern K | XRPD-7 days ([1]; Acetone/water (v:v = 76:24), a.w. 0.7): Pattern K | XRPD-7 days ([1]; Acetone/water (v:v = 92:8), a.w. 0.5): Pattern B | XRPD-7 days ([1]; Acetone/water (v:v = 97:30), a.w. 0.3): Pattern B | XRPD-7 days ([1]; Acetone/water (v:v = 99.5:0.5), a.w. 0.1): Pattern B | XRPD-7 days ([1]; Water, a.w. 1.0): Pattern K

COc1cc(-c2cn(C)c(=O)c(C)c2C)cc(OC)c1CN1CC[C@H](N2CCN(c3ccc(N[C@H]4CCC(=O)NC4=O)cc3F)CC2)C(F)(F)C1 [Pattern B]
XRPD [2]: Pattern B

CC(=O)CC(c1ccccc1)c1c(O)c2ccccc2oc1=O (centres unmarked) [Warfarin, reference compound]
% Remaining at 3 hours (in vitro; CD-1, mouse): 107.21% | % Remaining at 3 hours (in vitro; Sprague-Dawley, rat): 88.82% | % Remaining at 3 hours (in vitro; beagle, dog): 111.42% | % Remaining at 3 hours (in vitro; human): 91.67% | % Remaining at 3 hours (in vitro; monkey): 115.61%
